The target in one test is c-MET kinase (Homo sapiens (Human), UniProt P08581). As to the kind of experiment: Assay of small molecular compounds for inhibiting the activity of c-MET kinase (LANCE TR-FRET). In kind it is biochemical. The conditions noted are these: read-out: CMET IC50. In a few lines:
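Eleven final concentrations from 2500 nM down to 0.042 nM, in 4% DMSO, were tested against human c-MET (2× stock 2 nM), with compound and enzyme premixed for 5 min. The phosphorylation reaction used 4× stock of 400 nM ULight-JAK-1 peptide and 40 μM ATP for 60 min at room temperature, then stop and detection steps. TR-FRET percent inhibition against positive and negative controls gave the IC50.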
In general terms: TR-FRET usually uses a lanthanide donor and a delayed reading to cut background.

For another test, the system named is Ba/F3-AXL cells. The test is described as follows: Assay for inhibiting the proliferation of Ba/F3-AXL cells (CCK-8). In kind it is cell-based. The conditions noted are these: 72 hours of incubation, medium with 100 ng/mL hGas6, CCK-8. Here is the method: The values were then imported into Graphpad Prism 5 software for curve fitting, and IC50 was calculated.

The target in the next test is MER kinase (Homo sapiens (Human), UniProt Q12866). As to the kind of experiment: Assay of small molecular compounds for inhibiting the activity of MER kinase (LANCE TR-FRET). In kind it is biochemical. In a few lines:
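LANCE TR-FRET readout of ULight-poly GT phosphorylation by MER kinase; compound final range 0.042-2500 nM, 3-fold steps, 5 min enzyme preincubation. Reaction 60 min at room temperature in the dark with substrate/ATP (4× at 200 nM/20 μM), 1% DMSO, then stopped and developed 60 min; IC50 by curve fit.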

Where only a bound is given, the exact number is not on record here.

Sequence of c-MET kinase (P08581 25-1390): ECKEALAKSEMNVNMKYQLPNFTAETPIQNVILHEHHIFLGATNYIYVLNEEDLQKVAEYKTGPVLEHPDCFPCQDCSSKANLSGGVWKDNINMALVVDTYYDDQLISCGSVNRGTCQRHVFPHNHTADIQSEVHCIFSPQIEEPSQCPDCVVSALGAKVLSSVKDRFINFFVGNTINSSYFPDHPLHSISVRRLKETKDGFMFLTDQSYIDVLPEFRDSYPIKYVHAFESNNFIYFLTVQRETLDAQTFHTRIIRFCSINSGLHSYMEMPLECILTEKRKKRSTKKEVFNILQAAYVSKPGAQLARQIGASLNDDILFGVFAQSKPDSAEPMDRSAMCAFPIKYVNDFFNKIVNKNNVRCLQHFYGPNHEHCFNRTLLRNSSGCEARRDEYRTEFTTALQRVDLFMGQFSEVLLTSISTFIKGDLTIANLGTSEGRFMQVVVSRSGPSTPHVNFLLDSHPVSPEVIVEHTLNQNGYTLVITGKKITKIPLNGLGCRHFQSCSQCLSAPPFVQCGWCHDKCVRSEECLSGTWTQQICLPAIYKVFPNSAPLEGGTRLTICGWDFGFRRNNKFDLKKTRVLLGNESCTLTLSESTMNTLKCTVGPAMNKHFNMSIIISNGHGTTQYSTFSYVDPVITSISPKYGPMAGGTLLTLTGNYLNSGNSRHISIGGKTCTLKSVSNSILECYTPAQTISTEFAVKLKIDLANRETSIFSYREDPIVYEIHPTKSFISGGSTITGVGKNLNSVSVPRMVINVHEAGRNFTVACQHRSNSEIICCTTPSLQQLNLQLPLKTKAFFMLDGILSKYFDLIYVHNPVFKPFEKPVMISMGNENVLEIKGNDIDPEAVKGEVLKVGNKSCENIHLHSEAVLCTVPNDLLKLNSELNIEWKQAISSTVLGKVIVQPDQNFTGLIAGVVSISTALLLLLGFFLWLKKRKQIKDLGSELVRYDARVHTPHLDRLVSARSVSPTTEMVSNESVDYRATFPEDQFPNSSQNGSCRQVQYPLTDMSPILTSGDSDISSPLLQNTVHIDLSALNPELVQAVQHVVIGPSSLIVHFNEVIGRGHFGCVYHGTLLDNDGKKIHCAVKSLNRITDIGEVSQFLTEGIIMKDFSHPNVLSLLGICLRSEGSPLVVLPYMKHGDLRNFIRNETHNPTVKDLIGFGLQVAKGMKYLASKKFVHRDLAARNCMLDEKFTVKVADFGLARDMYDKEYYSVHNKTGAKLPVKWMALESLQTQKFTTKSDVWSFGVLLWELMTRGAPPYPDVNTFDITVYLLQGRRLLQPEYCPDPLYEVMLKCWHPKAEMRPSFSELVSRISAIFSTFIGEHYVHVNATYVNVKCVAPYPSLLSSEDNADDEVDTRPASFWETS
Sequence of MER kinase (Q12866 21-999): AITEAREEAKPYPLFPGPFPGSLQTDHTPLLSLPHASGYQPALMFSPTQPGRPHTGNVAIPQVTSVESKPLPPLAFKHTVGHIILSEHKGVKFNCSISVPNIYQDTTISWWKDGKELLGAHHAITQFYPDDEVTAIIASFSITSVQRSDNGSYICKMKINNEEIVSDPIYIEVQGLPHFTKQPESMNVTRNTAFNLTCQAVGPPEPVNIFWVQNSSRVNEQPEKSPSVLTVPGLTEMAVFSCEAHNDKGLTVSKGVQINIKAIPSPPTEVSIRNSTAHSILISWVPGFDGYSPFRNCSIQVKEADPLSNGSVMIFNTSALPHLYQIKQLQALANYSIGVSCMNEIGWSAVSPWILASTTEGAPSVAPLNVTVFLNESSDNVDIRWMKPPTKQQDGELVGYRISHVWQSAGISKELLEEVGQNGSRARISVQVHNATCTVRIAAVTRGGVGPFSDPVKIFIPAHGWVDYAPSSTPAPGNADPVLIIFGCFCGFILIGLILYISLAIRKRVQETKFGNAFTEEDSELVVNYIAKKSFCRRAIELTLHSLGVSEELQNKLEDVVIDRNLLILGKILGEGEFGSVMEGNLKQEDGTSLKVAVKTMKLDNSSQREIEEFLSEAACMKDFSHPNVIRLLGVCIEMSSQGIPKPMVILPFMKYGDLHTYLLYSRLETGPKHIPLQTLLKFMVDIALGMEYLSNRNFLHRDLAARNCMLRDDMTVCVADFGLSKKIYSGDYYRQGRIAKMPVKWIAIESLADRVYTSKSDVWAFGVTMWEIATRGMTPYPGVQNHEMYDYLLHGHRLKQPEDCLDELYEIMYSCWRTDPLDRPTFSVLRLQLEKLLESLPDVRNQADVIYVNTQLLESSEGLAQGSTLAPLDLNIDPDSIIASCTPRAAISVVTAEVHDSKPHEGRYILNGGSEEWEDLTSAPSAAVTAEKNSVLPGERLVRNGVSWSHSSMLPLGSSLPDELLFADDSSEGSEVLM

What is called IC50 is the concentration at which inhibition is half-maximal. With `O=C(Nc1ccc(Oc2ncnc3cc(OCCCN4CCOCC4)c4c(c23)OCCO4)c(F)c1)c1cccn(-c2ccc(F)cc2)c1=O` [Example 4, N-(3-fluoro-4-((5-(3-morpholinopropoxy)-2,3-dihydro-[1,4]dioxino[2,3-f]quinazolin-10-yl)oxy)phenyl)-1-(4-fluorophenyl)-2-oxo-1,2-dihydropyridine-3-carboxamide], the values for the IC50 on c-MET kinase, in the test with Ba/F3-AXL cells and against MER kinase were no more than 50 nM, less than 50 nM and no more than 50 nM, respectively.

Consider `COc1ccn(-c2ccc(F)cc2)c(=O)c1C(=O)Nc1ccc(Oc2ncnc3cc(OCCCN4CCOCC4)c4c(c23)OCCO4)c(F)c1` [Example 5, N-(3-fluoro-4-((5-(3-morpholinopropoxy)-2,3-dihydro-[1,4]dioxino[2,3-f]quinazolin-10-yl)oxy)phenyl)-1-(4-fluorophenyl)-4-methoxy-2-oxo-1,2-dihydropyridine-3-carboxamide], for which the IC50 on c-MET kinase was no more than 50 nM; in the test with Ba/F3-AXL cells, less than 50 nM; against MER kinase, no more than 50 nM.

Regarding `COc1cc2nccc(Oc3ccc(NC(=O)c4cn(C)c(=O)n(-c5ccc(F)cc5)c4=O)cc3F)c2c2c1OCCO2` [Example 13, N-(3-fluoro-4-((5-methoxy-2,3-dihydro-[1,4]dioxino[2,3-f]quinolin-10-yl)oxy)phenyl)-3-(4-fluorophenyl)-1-methyl-2,4-dioxo-1,2,3,4-tetrahydropyrimidine-5-carboxamide], the figures for the IC50 at c-MET kinase, in the test with Ba/F3-AXL cells and on MER kinase were no more than 50 nM, less than 50 nM and no more than 50 nM, respectively.

In the case of `Cn1cc(C(=O)Nc2ccc(Oc3ccnc4cc(OCCCN5CCOCC5)c5c(c34)OCCO5)c(F)c2)c(=O)n(-c2ccc(F)cc2)c1=O` [Example 15, N-(3-fluoro-4-((5-(3-morpholinopropoxy)-2,3-dihydro-[1,4]dioxino[2,3-f]quinolin-10-yl)oxy)phenyl)-3-(4-fluorophenyl)-1-methyl-2,4-dioxo-1,2,3,4-tetrahydropyrimidine-5-carboxamide], the IC50 at c-MET kinase is no more than 50 nM; with Ba/F3-AXL cells it was less than 50 nM; at MER kinase, no more than 50 nM.

Consider `CC(C)n1cc(C(=O)Nc2ccc(Oc3ccnc4cc(OCCCN5CCOCC5)c5c(c34)OCCO5)c(F)c2)c(=O)n(-c2ccc(F)cc2)c1=O` [Example 16, N-(3-fluoro-4-((5-(3-morpholinopropoxy)-2,3-dihydro-[1,4]dioxino[2,3-f]quinolin-10-yl)oxy)phenyl)-3-(4-fluorophenyl)-1-isopropyl-2,4-dioxo-1,2,3,4-tetrahydropyrimidine-5-carboxamide], for which the IC50 is no more than 50 nM at c-MET kinase, less than 50 nM in the test on Ba/F3-AXL cells and no more than 50 nM on MER kinase.

For `COc1cc2nccc(Oc3ccc(NC(=O)c4cccn(-c5ccc(F)cc5)c4=O)cc3F)c2c2c1OCCO2` [Example 17, N-(3-fluoro-4-((5-methoxy-2,3-dihydro-[1,4]dioxino[2,3-f]quinolin-10-yl)oxy)phenyl)-1-(4-fluorophenyl)-2-oxo-1,2-dihydropyridine-3-carboxamide], the IC50 on c-MET kinase was no more than 50 nM; with Ba/F3-AXL cells, less than 50 nM; on MER kinase it was no more than 50 nM.

`COc1cc2nccc(Oc3ccc(NC(=O)c4c(OC)ccn(-c5ccc(F)cc5)c4=O)cc3F)c2c2c1OCCO2` [Example 18, N-(3-fluoro-4-((5-methoxy-2,3-dihydro-[1,4]dioxino[2,3-f]quinolin-10-yl)oxy)phenyl)-1-(4-fluorophenyl)-4-methoxy-2-oxo-1,2-dihydropyridine-3-carboxamide]: the IC50 was no more than 50 nM on c-MET kinase, less than 50 nM with Ba/F3-AXL cells and no more than 50 nM against MER kinase.

As for `CCOc1ccn(-c2ccc(F)cc2)c(=O)c1C(=O)Nc1ccc(Oc2ccnc3cc(OC)c4c(c23)OCCO4)c(F)c1` [Example 19, N-(3-fluoro-4-((5-methoxy-2,3-dihydro-[1,4]dioxino[2,3-f]quinolin-10-yl)oxy)phenyl)-1-(4-fluorophenyl)-4-ethoxy-2-oxo-1,2-dihydropyridine-3-carboxamide], the IC50 on c-MET kinase was no more than 50 nM; in the test with Ba/F3-AXL cells it was less than 50 nM; on MER kinase, no more than 50 nM.

For `COc1ccn(-c2ccc(F)cc2)c(=O)c1C(=O)Nc1ccc(Oc2ccnc3cc(OCCCN4CCOCC4)c4c(c23)OCCO4)c(F)c1` [Example 21, N-(3-fluoro-4-((5-(3-morpholinopropoxy)-2,3-dihydro-[1,4]dioxino[2,3-f]quinolin-10-yl)oxy)phenyl)-1-(4-fluorophenyl)-4-methoxy-2-oxo-1,2-dihydropyridine-3-carboxamide], the IC50 at c-MET kinase was no more than 50 nM; in the test on Ba/F3-AXL cells it was less than 50 nM; against MER kinase, no more than 50 nM.

As to `CCOc1ccn(-c2ccc(F)cc2)c(=O)c1C(=O)Nc1ccc(Oc2ccnc3cc(OCCCN4CCOCC4)c4c(c23)OCCO4)c(F)c1` [Example 22, N-(3-fluoro-4-((5-(3-morpholinopropoxy)-2,3-dihydro-[1,4]dioxino[2,3-f]quinolin-10-yl)oxy)phenyl)-1-(4-fluorophenyl)-4-ethoxy-2-oxo-1,2-dihydropyridine-3-carboxamide], the IC50 is no more than 50 nM on c-MET kinase, less than 50 nM in the test on Ba/F3-AXL cells and no more than 50 nM on MER kinase.

`COc1cn(-c2ccc(F)cc2C)nc1C(=O)Nc1ccc(Oc2ccnc3cc(OCCCN4CCOCC4)c4c(c23)OCCO4)c(F)c1` [Example 27, 1-(4-fluoro-2-methylphenyl)-N-(3-fluoro-4-((5-(3-morpholinopropoxy)-2,3-dihydro-[1,4]dioxino[2,3-f]quinolin-10-yl)oxy)phenyl)-4-methoxy-1H-pyrazole-3-carboxamide]: the figures for the IC50 on c-MET kinase, in the test with Ba/F3-AXL cells and on MER kinase were no more than 50 nM, less than 50 nM and no more than 50 nM, respectively.

In the case of `O=C(Nc1ccc(Oc2ccnc3cc(OCCCN4CCCCC4)c4c(c23)OCCO4)c(F)c1)c1cccn(-c2ccc(F)cc2)c1=O` [Example 31, N-(3-fluoro-4-((5-(3-(piperidin-1-yl)propoxy)-2,3-dihydro-[1,4]dioxino[2,3-f]quinolin-10-yl)oxy)phenyl)-1-(4-fluorophenyl)-2-oxo-1,2-dihydropyridine-3-carboxamide], the IC50 on c-MET kinase is no more than 50 nM; with Ba/F3-AXL cells, less than 50 nM; against MER kinase, no more than 50 nM.

Turning to `COc1ccn(-c2ccc(F)cc2)c(=O)c1C(=O)Nc1ccc(Oc2ccnc3cc(OCCCN4CCCCC4)c4c(c23)OCCO4)c(F)c1` [Example 32, N-(3-fluoro-4-((5-(3-(piperidin-1-yl)propoxy)-2,3-dihydro-[1,4]dioxino[2,3-f]quinolin-10-yl)oxy)phenyl)-1-(4-fluorophenyl)-4-methoxy-2-oxo-1,2-dihydropyridine-3-carboxamide], the IC50 was no more than 50 nM on c-MET kinase, less than 50 nM in the test with Ba/F3-AXL cells and no more than 50 nM on MER kinase.

As to `CCOc1ccn(-c2ccc(F)cc2)c(=O)c1C(=O)Nc1ccc(Oc2ccnc3cc(OCCCN4CCCCC4)c4c(c23)OCCO4)c(F)c1` [Example 33, N-(3-fluoro-4-((5-(3-(piperidin-1-yl)propoxy)-2,3-dihydro-[1,4]dioxino[2,3-f]quinolin-10-yl)oxy)phenyl)-1-(4-fluorophenyl)-4-ethoxy-2-oxo-1,2-dihydropyridine-3-carboxamide], the IC50 at c-MET kinase was no more than 50 nM; with Ba/F3-AXL cells it was less than 50 nM; against MER kinase, no more than 50 nM.

For the compound `COCCOc1cc2nccc(Oc3ccc(NC(=O)c4cccn(-c5ccc(F)cc5)c4=O)cc3F)c2c2c1OCCO2` [Example 34, N-(3-fluoro-4-((5-(2-methoxyethoxy)-2,3-dihydro-[1,4]dioxino[2,3-f]quinolin-10-yl)oxy)phenyl)-1-(4-fluorophenyl)-2-oxo-1,2-dihydropyridine-3-carboxamide], the IC50 was no more than 50 nM at c-MET kinase, less than 50 nM with Ba/F3-AXL cells and no more than 50 nM against MER kinase.

As for `COCCOc1cc2nccc(Oc3ccc(NC(=O)c4c(OC)ccn(-c5ccc(F)cc5)c4=O)cc3F)c2c2c1OCCO2` [Example 35, N-(3-fluoro-4-((5-(2-methoxyethoxy)-2,3-dihydro-[1,4]dioxino[2,3-f]quinolin-10-yl)oxy)phenyl)-1-(4-fluorophenyl)-4-methoxy-2-oxo-1,2-dihydropyridine-3-carboxamide], the IC50 at c-MET kinase is no more than 50 nM; with Ba/F3-AXL cells, less than 50 nM; against MER kinase it was no more than 50 nM.

Regarding `COc1ccn(-c2ccc(F)cc2)c(=O)c1C(=O)Nc1ccc(Oc2ccnc3ccc4c(c23)OCCO4)cc1F` [Example 172, N-(4-((2,3-dihydro-[1,4]dioxino[2,3-f]quinolin-10-yl)oxy)-2-fluorophenyl)-1-(4-fluorophenyl)-4-methoxy-2-oxo-1,2-dihydropyridine-3-carboxamide], the IC50 at c-MET kinase is 50 to 500 nM; on MER kinase, no more than 50 nM.

As to `COc1cc2nccc(Oc3cc(C)c(NC(=O)c4cn(C)c(=O)n(-c5ccc(F)cc5)c4=O)cc3F)c2c2c1OCCO2` [Example 177, N-(5-fluoro-4-((5-methoxy-2,3-dihydro-[1,4]dioxino[2,3-f]quinolin-10-yl)oxy)-2-methylphenyl)-3-(4-fluorophenyl)-1-methyl-2,4-dioxo-1,2,3,4-tetrahydropyrimidine-5-carboxamide], the IC50 at c-MET kinase and on MER kinase was no more than 50 nM each time.

In the case of `COCCOc1cc2nccc(Oc3cc(C)c(NC(=O)c4cn(C)c(=O)n(-c5ccc(F)cc5)c4=O)cc3F)c2c2c1OCCO2` [Example 179, N-(5-fluoro-4-((5-(2-methoxyethoxy)-2,3-dihydro-[1,4]dioxino[2,3-f]quinolin-10-yl)oxy)-2-methylphenyl)-3-(4-fluorophenyl)-1-methyl-2,4-dioxo-1,2,3,4-tetrahydropyrimidine-5-carboxamide], the IC50 on c-MET kinase and against MER kinase was no more than 50 nM each time.

The values are drawn from patent publication US12202835B2, “Substituted aromatic ring-linked dioxinoquinazolines and dioxinoquinolines as kinase inhibitors” (BEIJING SCITECH-MQ PHARMACEUTICALS LIMITED, priority 2018, dated 2025).
